Data published in PMC9865589, “Synthesis and Evaluation of Novel S-alkyl Phthalimide- and S-benzyl-oxadiazole-quinoline Hybrids as Inhibitors of Monoamine Oxidase and Acetylcholinesterase” (Pharmaceuticals, 2022).
Values joined by “and” are separate entries in the source; they are usually repeats but may differ in a detail not shown here. Equal values may be shown once.

Experiments:
Format in all cases: biochemical
AChE = AChE (Homo sapiens, UniProt P22303); assay: biochemical; details: for IC50: average ± SEM, triplicate
Excerpt: (§1) Different test chemicals and substrate concentrations were utilized in the kinetic experiments. Lineweaver-Burk plots were employed to determine the kind of inhibition, and they were used to track how the inhibitor affected Km and Vmax by plotting the reciprocal reaction rate against the reciprocal substrate concentrations.
All substances were put through a little modified version of Ellman’s test to gauge the effectiveness of their ability to inhibit acetylcholinesterase (AChE). Released thiocholine reacts with chromogenic reagent 5,5-dithio-bis (2-nitrobenzoic) acid to produce a colorful product […]. At a concentration of 2.5 units/mL, the enzyme solutions were prepared. The assay volume was 100 μL, having 60 μL buffer and 10 μL test compound (0.1 mM, 10% DMSO), pursued by inserting enzyme 10 μL […]. The mixture was incubated for 10 min. 10 μL of the substrate and 10 μL of DTNB were added to the mixture.

MAO-B = target: T1, MAO-B (Homo sapiens, UniProt P27338); assay: biochemical
T1 sequence (P27338 1-520): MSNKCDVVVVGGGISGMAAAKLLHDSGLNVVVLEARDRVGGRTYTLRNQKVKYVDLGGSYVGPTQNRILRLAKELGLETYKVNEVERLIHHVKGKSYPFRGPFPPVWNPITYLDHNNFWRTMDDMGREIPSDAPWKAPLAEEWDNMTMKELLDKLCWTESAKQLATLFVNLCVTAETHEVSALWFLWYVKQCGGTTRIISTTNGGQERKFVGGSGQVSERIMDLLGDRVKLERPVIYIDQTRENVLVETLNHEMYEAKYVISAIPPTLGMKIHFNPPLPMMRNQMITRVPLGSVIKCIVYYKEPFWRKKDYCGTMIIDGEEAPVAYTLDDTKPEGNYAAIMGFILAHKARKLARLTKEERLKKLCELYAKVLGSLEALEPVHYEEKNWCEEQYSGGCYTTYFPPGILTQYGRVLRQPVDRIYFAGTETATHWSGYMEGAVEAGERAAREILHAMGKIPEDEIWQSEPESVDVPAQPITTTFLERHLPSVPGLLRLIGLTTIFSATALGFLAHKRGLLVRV
Experimental: as §1
(§2) According to the previously reported protocol, the synthesized compounds’ action on the monoamine oxidase (MAO-A and MAO-B) enzymes was tested. The enzyme was produced just 15 to 20 min before, at a cold room temperature. […] White 96-well plates were utilized for the test. The assay volume was 100 μL, having 60 μL buffer (pH 7.4) and 10 μL test compound (0.1 mM, 10% DMSO), followed by adding enzyme 10 μL (26 μg of protein for MAO-A and 5.0 μg for MAO-B). For MAO-A and MAO-B, the mixture was incubated for 20 and 15 min, respectively. The mixture was then given 10 μL of the substrate and 10 μL of newly prepared Amplex red. […] The non-linear curve fitting tool PRISM 5.0 (GraphPad, San Diego, CA, USA) was employed to compute IC50 values.

MAO-A = target: T2, MAO-A (Homo sapiens, UniProt P21397); assay: Monoamine oxidase A inhibition assay (Amplex red fluorescence); details: for IC50: average ± SEM, triplicate
T2 sequence (P21397 1-527): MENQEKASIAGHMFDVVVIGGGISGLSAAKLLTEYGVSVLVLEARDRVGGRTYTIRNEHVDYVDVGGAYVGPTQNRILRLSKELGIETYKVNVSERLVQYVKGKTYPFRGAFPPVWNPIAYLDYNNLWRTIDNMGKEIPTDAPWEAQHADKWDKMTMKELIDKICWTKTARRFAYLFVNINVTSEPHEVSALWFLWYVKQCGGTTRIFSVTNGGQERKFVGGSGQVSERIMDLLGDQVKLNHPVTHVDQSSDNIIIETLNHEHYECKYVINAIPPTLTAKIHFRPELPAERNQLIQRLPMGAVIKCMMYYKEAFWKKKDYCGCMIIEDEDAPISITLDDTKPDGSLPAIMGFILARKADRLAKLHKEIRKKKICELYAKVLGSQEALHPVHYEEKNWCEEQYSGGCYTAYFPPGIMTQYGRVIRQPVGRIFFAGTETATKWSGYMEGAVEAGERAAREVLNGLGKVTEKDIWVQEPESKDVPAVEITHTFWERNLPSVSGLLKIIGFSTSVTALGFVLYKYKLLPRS
Experimental: as §1, §2

[1] = Lineweaver-Burk plots, Vmax unaffected, Km increased

Sequence of AChE (P22303 32-614): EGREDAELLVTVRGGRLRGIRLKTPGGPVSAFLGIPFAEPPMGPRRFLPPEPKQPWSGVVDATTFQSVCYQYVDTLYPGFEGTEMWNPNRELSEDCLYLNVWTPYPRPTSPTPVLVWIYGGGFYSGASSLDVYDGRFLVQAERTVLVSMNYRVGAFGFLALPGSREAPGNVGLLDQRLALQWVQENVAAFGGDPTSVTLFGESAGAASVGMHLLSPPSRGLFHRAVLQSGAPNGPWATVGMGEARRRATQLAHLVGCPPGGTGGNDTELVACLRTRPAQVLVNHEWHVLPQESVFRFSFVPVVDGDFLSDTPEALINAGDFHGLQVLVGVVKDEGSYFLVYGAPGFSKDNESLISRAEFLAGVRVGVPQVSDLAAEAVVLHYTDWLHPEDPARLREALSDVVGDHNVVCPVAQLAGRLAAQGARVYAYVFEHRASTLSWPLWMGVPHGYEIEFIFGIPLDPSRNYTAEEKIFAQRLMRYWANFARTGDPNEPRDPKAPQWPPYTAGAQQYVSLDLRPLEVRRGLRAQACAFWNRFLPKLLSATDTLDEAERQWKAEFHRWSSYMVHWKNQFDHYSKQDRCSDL

O=C1c2ccccc2C(=O)N1CSc1nnc(-c2cc(-c3ccccc3)nc3ccccc23)o1 [Compound 5a, 2-((5-(2-Phenylquinolin-4-yl)-1,3,4-oxadiazol-2-ylthio)methyl)isoindoline-1,3-dione]
IC50 (AChE): 1.4 ± 0.45 µM
IC50 (MAO-B): 1.59 ± 1.66 µM
type of inhibition of MAO-A (MAO-A; [1]): pure competitive type of inhibition
IC50 (MAO-A): 0.91 ± 0.15 µM

O=C1c2ccccc2C(=O)N1CCSc1nnc(-c2cc(-c3ccccc3)nc3ccccc23)o1 [Compound 5b, 2-(2-(5-(2-Phenylquinolin-4-yl)-1,3,4-oxadiazol-2-ylthio)ethyl)isoindoline-1,3-dione]
IC50 (AChE): 2.55 ± 0.96 µM
IC50 (MAO-B): 2.61 ± 2.48 µM
IC50 (MAO-A): 1.81 ± 0.38 µM

O=C1c2ccccc2C(=O)N1CCCSc1nnc(-c2cc(-c3ccccc3)nc3ccccc23)o1 [Compound 5c, 2-(3-(5-(2-Phenylquinolin-4-yl)-1,3,4-oxadiazol-2-ylthio)propyl)isoindoline-1,3-dione]
type of inhibition of AChE (AChE; [1]): pure competitive type of inhibition
IC50 (AChE): 1.02 ± 0.65 µM
IC50 (MAO-B): 3.39 ± 0.42 µM
IC50 (MAO-A): 3.31 ± 0.8 µM

O=C1c2ccccc2C(=O)N1CCCCSc1nnc(-c2cc(-c3ccccc3)nc3ccccc23)o1 [Compound 5d, 2-(4-(5-(2-Phenylquinolin-4-yl)-1,3,4-oxadiazol-2-ylthio)butyl)isoindoline-1,3-dione]
IC50 (AChE): 2.38 ± 0.92 µM
IC50 (MAO-B): 3.76 ± 1.04 µM
IC50 (MAO-A): 3.18 ± 1.23 µM

O=C1c2ccccc2C(=O)N1CCCCCSc1nnc(-c2cc(-c3ccccc3)nc3ccccc23)o1 [Compound 5e, 2-(5-(5-(2-Phenylquinolin-4-yl)-1,3,4-oxadiazol-2-ylthio)pentyl)isoindoline-1,3-dione]
IC50 (AChE): 1.29 ± 0.75 µM
IC50 (MAO-B): 3.84 ± 0.91 µM
IC50 (MAO-A): 4.14 ± 0.35 µM

O=C1c2ccccc2C(=O)N1CCCCCCSc1nnc(-c2cc(-c3ccccc3)nc3ccccc23)o1 [Compound 5f, 2-(6-(5-(2-Phenylquinolin-4-yl)-1,3,4-oxadiazol-2-ylthio)hexyl)isoindoline-1,3-dione]
IC50 (AChE): 3.32 ± 0.45 µM
IC50 (MAO-B): 0.84 ± 0.06 µM
type of inhibition of MAO-B (MAO-B; [1]): pure competitive type of inhibition
IC50 (MAO-A): 4.88 ± 1.75 µM

FC(F)(F)c1ccc(CSc2nnc(-c3cc(-c4ccccc4)nc4ccccc34)o2)cc1 [Compound 6a, 4-(5-(4-(Trifluoromethyl)benzylthio)-1,3,4-oxadiazol-2-yl)-2-phenylquinoline]
IC50 (AChE): 3.23 ± 0.95 µM
IC50 (MAO-B): 3.71 ± 2.88 µM
IC50 (MAO-A): 1.02 µM and 1.51 µM

FC(F)(F)c1cccc(CSc2nnc(-c3cc(-c4ccccc4)nc4ccccc34)o2)c1 [Compound 6b, 4-(5-(3-(Trifluoromethyl)benzylthio)-1,3,4-oxadiazol-2-yl)-2-phenylquinoline]
IC50 (AChE): 3.54 ± 1.05 µM
IC50 (MAO-B): 2.71 ± 0.88 µM
IC50 (MAO-A): 1.51 µM and 1.02 µM

FC(F)(F)c1ccccc1CSc1nnc(-c2cc(-c3ccccc3)nc3ccccc23)o1 [Compound 6c, 4-(5-(2-(Trifluoromethyl)benzylthio)-1,3,4-oxadiazol-2-yl)-2-phenylquinoline]
IC50 (AChE): 4.38 ± 1.45 µM
IC50 (MAO-B): 5.59 ± 3.22 µM
IC50 (MAO-A): 6.81 ± 2.65 µM

c1ccc(CSc2nnc(-c3cc(-c4ccccc4)nc4ccccc34)o2)cc1 [Compound 6d, 4-(5-(Benzylthio)-1,3,4-oxadiazol-2-yl)-2-phenylquinoline]
IC50 (AChE): 4.98 ± 1.85 µM
IC50 (MAO-B): 2.9 ± 1.85 µM
IC50 (MAO-A): 4.16 ± 1.71 µM
